Active and inactive are the calls of the source.
Columns and labels:
Aminopeptidase N = target: T1, Aminopeptidase N (Plasmodium falciparum FcB1/Columbia, UniProt O96935); assay: P. falciparum M1AAP inhibitors, biochemical, fluorogenic H-Leu-NHMec substrate, 1536-well (AID 1445); parameters: species or system Plasmodium falciparum 3D7, 3D7
T1 sequence (O96935 whole entry): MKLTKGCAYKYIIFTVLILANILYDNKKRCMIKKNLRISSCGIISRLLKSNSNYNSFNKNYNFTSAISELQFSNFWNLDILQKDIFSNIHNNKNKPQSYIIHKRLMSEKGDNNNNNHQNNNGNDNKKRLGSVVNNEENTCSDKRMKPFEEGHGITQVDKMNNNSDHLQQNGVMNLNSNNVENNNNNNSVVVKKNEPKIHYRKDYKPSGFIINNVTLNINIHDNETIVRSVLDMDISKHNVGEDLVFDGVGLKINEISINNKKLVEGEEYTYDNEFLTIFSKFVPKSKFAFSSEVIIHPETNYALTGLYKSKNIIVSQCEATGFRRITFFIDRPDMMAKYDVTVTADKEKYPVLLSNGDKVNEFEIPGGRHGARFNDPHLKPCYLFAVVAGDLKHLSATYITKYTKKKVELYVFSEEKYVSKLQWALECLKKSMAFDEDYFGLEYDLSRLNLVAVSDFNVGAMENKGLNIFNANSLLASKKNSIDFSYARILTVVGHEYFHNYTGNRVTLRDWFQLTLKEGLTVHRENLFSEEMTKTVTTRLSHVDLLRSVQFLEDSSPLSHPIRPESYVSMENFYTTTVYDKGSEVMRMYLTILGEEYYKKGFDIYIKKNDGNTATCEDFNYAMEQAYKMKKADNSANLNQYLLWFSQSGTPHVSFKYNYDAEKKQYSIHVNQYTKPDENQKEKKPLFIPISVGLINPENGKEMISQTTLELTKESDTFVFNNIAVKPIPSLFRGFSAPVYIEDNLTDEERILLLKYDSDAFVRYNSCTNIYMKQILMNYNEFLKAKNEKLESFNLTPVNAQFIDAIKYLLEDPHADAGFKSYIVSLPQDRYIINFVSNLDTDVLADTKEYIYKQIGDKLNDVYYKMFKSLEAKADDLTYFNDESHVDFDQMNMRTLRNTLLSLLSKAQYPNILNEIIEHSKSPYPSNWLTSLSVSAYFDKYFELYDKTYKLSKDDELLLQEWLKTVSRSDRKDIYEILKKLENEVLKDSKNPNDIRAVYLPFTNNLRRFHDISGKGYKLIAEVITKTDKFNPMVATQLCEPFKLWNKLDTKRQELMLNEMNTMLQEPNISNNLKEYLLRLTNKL

Genome polyprotein = Genome polyprotein (dengue virus type 2, UniProt P29990); assay: Dengue-2 NS5 methyltransferase inhibitors, primary screen, biochemical, confirmation dose response (AID 588689); type: functional
Chain of Genome polyprotein (P29990 2492-3391 limits assumed): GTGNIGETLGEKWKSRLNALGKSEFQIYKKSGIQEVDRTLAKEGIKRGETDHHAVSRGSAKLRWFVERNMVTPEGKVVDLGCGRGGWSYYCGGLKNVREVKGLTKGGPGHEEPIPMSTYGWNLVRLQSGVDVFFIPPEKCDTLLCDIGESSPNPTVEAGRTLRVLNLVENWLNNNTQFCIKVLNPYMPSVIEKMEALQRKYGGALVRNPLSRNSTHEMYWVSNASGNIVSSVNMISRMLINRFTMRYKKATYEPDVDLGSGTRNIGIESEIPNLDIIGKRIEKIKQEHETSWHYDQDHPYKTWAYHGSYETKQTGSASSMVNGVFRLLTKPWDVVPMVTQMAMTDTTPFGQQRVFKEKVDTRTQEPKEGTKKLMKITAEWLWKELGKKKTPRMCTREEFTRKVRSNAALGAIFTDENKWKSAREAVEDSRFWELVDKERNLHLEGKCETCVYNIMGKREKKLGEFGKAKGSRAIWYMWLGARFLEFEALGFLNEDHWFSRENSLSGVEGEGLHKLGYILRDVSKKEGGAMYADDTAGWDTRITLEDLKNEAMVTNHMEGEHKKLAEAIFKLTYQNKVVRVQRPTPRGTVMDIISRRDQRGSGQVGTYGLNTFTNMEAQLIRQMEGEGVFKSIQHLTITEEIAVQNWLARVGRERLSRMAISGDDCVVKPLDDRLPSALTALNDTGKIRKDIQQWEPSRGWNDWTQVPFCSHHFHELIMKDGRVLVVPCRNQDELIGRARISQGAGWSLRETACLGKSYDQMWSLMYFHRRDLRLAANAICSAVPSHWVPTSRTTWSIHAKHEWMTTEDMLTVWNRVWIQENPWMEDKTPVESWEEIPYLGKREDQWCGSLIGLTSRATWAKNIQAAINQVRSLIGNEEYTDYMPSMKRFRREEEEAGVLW

[1] = target: T2, Short transient receptor potential channel 4 (Mus musculus, UniProt Q9QUQ5); assay: mouse TRPC4 channel inhibitors, dose response, cell-based, HEK293 TRPC4/mu-opioid, Fluo-4 calcium (AID 434942); type: functional;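 note: potency of inhibitors blocking the TRPC4 calcium response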
T2 sequence (Q9QUQ5 whole entry): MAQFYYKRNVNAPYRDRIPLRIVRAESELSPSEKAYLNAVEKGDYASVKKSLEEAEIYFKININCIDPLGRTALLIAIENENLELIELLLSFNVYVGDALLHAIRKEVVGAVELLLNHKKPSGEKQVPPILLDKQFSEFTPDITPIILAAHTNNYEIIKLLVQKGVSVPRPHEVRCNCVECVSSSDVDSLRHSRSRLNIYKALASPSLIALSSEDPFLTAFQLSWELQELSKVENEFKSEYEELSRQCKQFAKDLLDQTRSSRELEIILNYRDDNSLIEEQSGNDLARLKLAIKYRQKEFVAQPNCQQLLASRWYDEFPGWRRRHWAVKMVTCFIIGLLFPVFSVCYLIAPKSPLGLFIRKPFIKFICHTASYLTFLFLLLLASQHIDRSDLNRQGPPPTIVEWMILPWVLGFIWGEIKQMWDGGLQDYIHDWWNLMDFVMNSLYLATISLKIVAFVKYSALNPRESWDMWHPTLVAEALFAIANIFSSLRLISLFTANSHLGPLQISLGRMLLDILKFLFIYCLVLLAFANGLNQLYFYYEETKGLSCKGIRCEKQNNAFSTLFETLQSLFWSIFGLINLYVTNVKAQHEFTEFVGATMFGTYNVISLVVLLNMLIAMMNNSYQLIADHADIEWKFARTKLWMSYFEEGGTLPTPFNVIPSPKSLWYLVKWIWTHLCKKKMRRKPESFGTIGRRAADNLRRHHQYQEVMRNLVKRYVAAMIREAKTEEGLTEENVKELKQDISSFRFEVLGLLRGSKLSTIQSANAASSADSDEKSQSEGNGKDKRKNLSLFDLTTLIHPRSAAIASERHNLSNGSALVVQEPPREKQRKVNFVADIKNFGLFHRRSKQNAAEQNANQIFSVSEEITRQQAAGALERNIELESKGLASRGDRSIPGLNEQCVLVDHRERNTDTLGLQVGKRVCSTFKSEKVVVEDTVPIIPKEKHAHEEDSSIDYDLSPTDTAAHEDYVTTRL

[2] = target: T2, Short transient receptor potential channel 4; assay: mouse TRPC4 channel activators, dose response, cell-based, HEK293 TRPC4/mu-opioid, Fluo-4 calcium (AID 434937); type: functional
Beta-galactosidase = Beta-galactosidase (Escherichia coli, UniProt Q8VNN2); assay: beta-galactosidase enzyme inhibitors and activators, dose response, artefact control for CCR6 antagonist project, biochemical, E. coli enzyme, set 3 (AID 504712); type: functional
Chain of Beta-galactosidase (Q8VNN2 whole entry): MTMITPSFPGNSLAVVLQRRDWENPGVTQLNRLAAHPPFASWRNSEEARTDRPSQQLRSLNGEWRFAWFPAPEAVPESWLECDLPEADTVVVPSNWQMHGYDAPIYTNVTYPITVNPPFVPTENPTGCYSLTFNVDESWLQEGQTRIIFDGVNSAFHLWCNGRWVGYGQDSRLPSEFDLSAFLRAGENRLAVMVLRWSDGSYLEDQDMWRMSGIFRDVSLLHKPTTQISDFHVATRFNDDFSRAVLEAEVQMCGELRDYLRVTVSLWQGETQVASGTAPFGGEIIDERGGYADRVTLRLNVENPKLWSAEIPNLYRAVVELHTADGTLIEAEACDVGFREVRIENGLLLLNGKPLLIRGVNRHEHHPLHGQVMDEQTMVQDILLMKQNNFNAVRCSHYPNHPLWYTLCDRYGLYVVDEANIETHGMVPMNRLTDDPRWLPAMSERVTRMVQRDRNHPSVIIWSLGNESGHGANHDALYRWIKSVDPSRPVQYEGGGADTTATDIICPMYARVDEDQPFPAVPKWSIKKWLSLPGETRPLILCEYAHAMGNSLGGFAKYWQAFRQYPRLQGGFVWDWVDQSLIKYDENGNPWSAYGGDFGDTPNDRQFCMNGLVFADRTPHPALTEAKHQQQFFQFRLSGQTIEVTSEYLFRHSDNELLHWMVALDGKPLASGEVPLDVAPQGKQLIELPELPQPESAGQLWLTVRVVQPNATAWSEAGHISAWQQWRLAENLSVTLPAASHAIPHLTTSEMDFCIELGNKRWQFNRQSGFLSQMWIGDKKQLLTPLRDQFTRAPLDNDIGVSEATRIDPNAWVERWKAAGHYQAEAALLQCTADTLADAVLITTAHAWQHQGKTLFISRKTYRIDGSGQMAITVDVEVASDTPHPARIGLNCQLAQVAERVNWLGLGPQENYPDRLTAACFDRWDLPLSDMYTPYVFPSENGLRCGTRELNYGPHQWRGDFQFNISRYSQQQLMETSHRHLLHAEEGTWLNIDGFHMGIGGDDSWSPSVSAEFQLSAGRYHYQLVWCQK

[3] = A Cell Based Secondary Assay To Explore Cytotoxicity of Compounds that Sensitize Mycobacterium Tuberculosis to Beta-Lactam Antibiotics.; type: functional
[4] = P. falciparum Dd2 growth inhibitors, dose response, SYBR Green, dry powder samples, set 9 (AID 1159568); type: functional, cell-based
[5] = P. falciparum 3D7-ScDHODH growth inhibitors, dose response, SYBR Green, dry powder samples (AID 1159570); type: functional, cell-based;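 note: parasite growth measured after 72 hours of compound exposure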
[6] = P. falciparum Dd2 growth inhibitors, dose response, SYBR Green, cherry-picked samples (AID 1159567); type: functional, cell-based
[7] = P. falciparum Dd2 growth inhibitors, dose response, SYBR Green, dry powder samples (AID 1159566); type: functional, cell-based;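 note: potency for growth inhibition with lower SYBR green DNA signal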
[8] = HepG2 cell cytotoxicity, dose response, cytotoxicity control, cherry-picked samples (AID 1159577); type: functional, cell-based
[9] = P. falciparum ATP4 D1247Y mutant growth inhibitors, dose response, NITD609-resistant line, SYBR Green, dry powder (AID 1159571); type: functional, cell-based;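 note: parasites synchronized at ring stage by sorbitol before testing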

O=C1/C(=C/c2nc3ccccc3[nH]2)SC(=S)N1NS(=O)(=O)c1ccccc1
IC50 (Aminopeptidase N): 23.7 µM (active)
IC50 (Genome polyprotein): 54.7 µM (active)

NC(=O)c1nsc(C(=O)N(Cc2ccccc2Cl)C(C(=O)NCC2CCCO2)c2ccc(O)cc2)c1N (stereo not drawn)
EC50 [1]: 5.96 µM (active)

COc1ccc(C(CNC(=O)Cc2ccc3ccccc3c2)N(C)C)cc1 (stereo not drawn)
EC50 [1]: 0.0533 µM (active)
EC50 [2]: 0.668 µM (active)

Oc1c(/C=N/Cc2ccncc2)sc2ccccc12
IC50 (Beta-galactosidase): > 66.6 µM (inactive)

CC1=NN(c2ccccc2)C(=O)C1/C=N/c1ccccc1O (stereo not drawn)
IC50 (Aminopeptidase N): 12.8 µM (active)
CC50 [3]: > 40 µM (active)

O=C(Nc1ccc2c(c1)[C@@H]1C[C@@H](CC(=O)N3CCc4ccccc4C3)O[C@@H](CO)[C@@H]1O2)c1ccc2c(c1)OCO2
AC50 [4]: 13 µM (active)

Cc1nc(N2[C@H](CO)[C@H](c3ccccc3)[C@H]2CNCC2CCCC2)sc1C
AC50 [5]: 1.4 µM (active)
AC50 [6]: 2.26 µM (active)
AC50 [7]: 1.12 µM (active)
AC50 [8]: > 39 µM (inactive)
AC50 [9]: 1.42 µM (active)

COc1ccccc1NC(=O)N1C[C@@H]2N[C@H](C1)[C@H]2c1ccc(/C=C/c2ccccc2)cc1
AC50 [4]: 4.56 µM (active)
AC50 [6]: 3.04 µM (active)

N#Cc1cccc(-c2ccc([C@@H]3[C@@H]4CN(Cc5ccccc5)C[C@H]3N4)cc2)c1
AC50 [6]: 5.57 µM (active)
AC50 [8]: 15.4 µM (active)

C[C@H](CO)N1C[C@H](C)[C@H](CN(C)Cc2ccc(-c3ccccc3)cc2)OCc2ccccc2-c2ccccc2C1=O
AC50 [6]: 5.19 µM (active)
AC50 [8]: > 39 µM (inactive)

O=C(Nc1ccc(Cl)cc1)N1C[C@@H]2[C@H](c3ccccc31)[C@@H](CO)N2CC1CCCCC1
AC50 [4]: 5.79 µM (active)

CO[C@H]1CN(C)C(=O)c2cc(NC(=O)c3cccc(F)c3)ccc2OC[C@H](C)N(C)C[C@H]1C
AC50 [4]: 22.8 µM (active)

O=C1C=CC(=O)N1
IC50 (Beta-galactosidase): > 66.6 µM (inactive)
